Measurements from ChEMBL document CHEMBL1201862, “PubChem BioAssay data set” (2004).
The source made the active and inactive calls.

Legend:
[1] = target: T1, Calpain-2 catalytic subunit (Sus scrofa, UniProt P43367); assay: pig calpain II inhibitor potency, dose response, biochemical, fluorogenic peptide substrate (AID 1420); type: functional
T1 sequence (P43367 whole entry): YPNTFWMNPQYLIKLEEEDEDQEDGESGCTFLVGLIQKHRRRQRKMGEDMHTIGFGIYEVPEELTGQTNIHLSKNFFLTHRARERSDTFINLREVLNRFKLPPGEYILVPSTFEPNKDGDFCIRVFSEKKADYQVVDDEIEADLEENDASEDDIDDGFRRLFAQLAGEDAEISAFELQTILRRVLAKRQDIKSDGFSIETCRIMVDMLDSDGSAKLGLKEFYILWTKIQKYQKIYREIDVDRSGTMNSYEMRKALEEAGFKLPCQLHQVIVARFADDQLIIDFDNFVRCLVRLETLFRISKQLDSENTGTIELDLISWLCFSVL

[2] = HEp-2 cell cytotoxicity, dose response, cytotoxicity control for RSV inhibitor project, HTS (AID 2410); type: functional; conditions: human respiratory syncytial virus
[3] = target: FAD-linked sulfhydryl oxidase ALR (Homo sapiens, UniProt P55789); assay: inhibitors of human ALR sulfhydryl oxidase, dose response, biochemical, H2O2 detection, luminescence, cherry-pick (AID 493248)
FAD-linked sulfhydryl oxidase ALR, sequence (P55789 whole entry): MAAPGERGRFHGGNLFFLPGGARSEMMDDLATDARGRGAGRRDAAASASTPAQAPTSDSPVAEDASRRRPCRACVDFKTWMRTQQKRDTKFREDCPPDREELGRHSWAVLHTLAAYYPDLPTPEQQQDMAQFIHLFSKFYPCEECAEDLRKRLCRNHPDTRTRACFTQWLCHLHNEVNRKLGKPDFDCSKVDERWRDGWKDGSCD

[4] = target: T2, Ubiquitin-conjugating enzyme E2 N (Homo sapiens, UniProt P61088); type: functional;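 also: Dose-response confirmation in a TR-FRET assay detecting UBC13-driven polyubiquitin chain formation, inhibition measured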
T2 sequence (P61088 whole entry): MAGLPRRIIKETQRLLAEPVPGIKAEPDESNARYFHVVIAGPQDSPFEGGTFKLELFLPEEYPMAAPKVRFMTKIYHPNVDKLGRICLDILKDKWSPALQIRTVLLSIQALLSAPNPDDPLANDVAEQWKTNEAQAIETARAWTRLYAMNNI

[5] = inhibitors of clade B AD8 Env fusion, dose response, cell-based, cherry-pick (AID 652062); type: functional;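 also: luciferase signal from cell-cell fusion driven by HIV-1 clade B AD8 Env; potency is for inhibitors of fusion seen as a drop in luminescence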
[6] = inhibitors of HIV Env-driven cell fusion, dose response, cherry-pick (AID 652057); type: functional, cell-based
[7] = ZM109 Env clade C HIV-1 fusion inhibitors, dose response, HeLa effector, CEM target cells, luciferase, cherry-pick (AID 652058); type: functional, cell-based
[8] = off-target signal loss in HeLa-CEM21 co-culture – HeLa F-luc CTL cells, cherry-picked, counter-screen for HIV-1 Env fusion inhibitor project, dose response (AID 652040); type: functional, cell-based;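 also: potency for signal decrease marking cytotoxic or nonspecific inhibition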
[9] = target: T3, Heat shock factor protein 1 (Mus musculus, UniProt P38532); assay: inhibition of MG132-induced HSE-luciferase signal, confirmation, cell-based, NIH3T3, luminescence, dose retest (AID 2382); type: functional;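 also: NIH3T3 fibroblasts with HSF1-driven luciferase reporter stressed by proteasome inhibitor MG132; luminescence from HSF1-driven luciferase expression after 8 hours of MG132 stress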
T3 sequence (P38532 whole entry): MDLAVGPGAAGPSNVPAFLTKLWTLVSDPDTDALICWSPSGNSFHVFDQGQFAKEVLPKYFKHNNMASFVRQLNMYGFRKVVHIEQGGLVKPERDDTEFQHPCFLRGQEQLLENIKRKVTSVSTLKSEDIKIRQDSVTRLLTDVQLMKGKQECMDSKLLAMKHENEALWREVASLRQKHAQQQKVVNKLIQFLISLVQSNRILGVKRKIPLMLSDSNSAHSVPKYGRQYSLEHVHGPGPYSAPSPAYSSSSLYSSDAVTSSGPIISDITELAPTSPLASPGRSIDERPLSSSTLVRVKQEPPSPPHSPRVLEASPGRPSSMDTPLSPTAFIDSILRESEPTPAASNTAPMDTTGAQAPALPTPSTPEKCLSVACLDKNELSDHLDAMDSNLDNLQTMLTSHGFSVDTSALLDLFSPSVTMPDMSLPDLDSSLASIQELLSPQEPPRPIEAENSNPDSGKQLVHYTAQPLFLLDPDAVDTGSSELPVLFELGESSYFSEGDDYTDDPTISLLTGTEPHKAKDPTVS

Cytochrome P450 1A2 = target: T4, Cytochrome P450 1A2 (Homo sapiens, UniProt P05177);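 also: PubChem cytochrome P450 panel assay, CYP1A2 panel member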
T4 sequence (P05177 whole entry): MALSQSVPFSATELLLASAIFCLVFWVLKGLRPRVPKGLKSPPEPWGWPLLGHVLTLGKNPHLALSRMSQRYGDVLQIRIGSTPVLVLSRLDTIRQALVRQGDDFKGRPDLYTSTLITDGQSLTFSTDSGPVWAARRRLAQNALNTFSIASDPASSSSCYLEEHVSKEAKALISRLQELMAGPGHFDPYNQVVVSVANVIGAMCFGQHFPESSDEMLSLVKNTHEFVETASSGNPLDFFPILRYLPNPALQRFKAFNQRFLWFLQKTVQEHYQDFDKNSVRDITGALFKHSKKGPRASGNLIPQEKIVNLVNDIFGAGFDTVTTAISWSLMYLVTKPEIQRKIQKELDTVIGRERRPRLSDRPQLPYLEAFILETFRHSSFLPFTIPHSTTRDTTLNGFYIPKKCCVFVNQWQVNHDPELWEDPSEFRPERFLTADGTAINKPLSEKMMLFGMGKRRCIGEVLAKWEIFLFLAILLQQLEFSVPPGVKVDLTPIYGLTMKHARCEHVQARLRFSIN

Cytochrome P450 2C19 = Cytochrome P450 2C19 (Homo sapiens, UniProt P33261); assay: Cytochrome panel assay with activity outcomes. Panel member name: p450-cyp2c19 Compounds with AC50 equal or less than 10 uM are considered active; type: functional; conditions: read-out: AC50
Cytochrome P450 2C19, sequence (P33261 whole entry): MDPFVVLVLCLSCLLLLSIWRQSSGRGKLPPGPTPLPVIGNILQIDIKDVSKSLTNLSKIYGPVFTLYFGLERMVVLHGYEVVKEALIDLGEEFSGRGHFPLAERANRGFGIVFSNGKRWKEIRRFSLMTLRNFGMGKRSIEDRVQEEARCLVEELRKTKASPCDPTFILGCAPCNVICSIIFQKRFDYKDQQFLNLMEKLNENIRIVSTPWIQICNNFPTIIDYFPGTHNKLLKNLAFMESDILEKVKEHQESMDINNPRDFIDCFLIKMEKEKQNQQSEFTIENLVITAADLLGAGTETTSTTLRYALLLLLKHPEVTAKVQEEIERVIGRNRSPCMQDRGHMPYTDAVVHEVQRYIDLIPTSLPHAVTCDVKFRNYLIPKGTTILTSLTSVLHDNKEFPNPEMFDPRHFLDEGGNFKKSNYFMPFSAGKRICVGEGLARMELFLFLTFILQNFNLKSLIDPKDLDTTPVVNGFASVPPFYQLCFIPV

Cytochrome P450 3A4 = Cytochrome P450 3A4 (Homo sapiens, UniProt P08684);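 also: CYP3A4 tested as one member of a cytochrome P450 panel screen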
Cytochrome P450 3A4, sequence (P08684 whole entry): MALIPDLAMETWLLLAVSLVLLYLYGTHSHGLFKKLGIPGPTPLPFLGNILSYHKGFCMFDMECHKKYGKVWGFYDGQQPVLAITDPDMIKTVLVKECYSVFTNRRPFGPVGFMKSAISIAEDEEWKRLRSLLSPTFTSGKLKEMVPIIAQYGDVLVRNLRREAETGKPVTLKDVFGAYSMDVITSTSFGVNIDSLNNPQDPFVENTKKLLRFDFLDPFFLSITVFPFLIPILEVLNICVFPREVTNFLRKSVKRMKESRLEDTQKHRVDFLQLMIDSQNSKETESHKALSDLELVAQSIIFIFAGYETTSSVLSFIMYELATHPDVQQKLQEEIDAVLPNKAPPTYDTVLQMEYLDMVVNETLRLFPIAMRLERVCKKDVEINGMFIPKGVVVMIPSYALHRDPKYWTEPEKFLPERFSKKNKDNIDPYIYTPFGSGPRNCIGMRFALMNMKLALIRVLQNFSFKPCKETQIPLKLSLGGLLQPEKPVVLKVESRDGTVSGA

Cytochrome P450 2C9 = Cytochrome P450 2C9 (Homo sapiens, UniProt P11712)
Cytochrome P450 2C9, sequence (P11712 whole entry): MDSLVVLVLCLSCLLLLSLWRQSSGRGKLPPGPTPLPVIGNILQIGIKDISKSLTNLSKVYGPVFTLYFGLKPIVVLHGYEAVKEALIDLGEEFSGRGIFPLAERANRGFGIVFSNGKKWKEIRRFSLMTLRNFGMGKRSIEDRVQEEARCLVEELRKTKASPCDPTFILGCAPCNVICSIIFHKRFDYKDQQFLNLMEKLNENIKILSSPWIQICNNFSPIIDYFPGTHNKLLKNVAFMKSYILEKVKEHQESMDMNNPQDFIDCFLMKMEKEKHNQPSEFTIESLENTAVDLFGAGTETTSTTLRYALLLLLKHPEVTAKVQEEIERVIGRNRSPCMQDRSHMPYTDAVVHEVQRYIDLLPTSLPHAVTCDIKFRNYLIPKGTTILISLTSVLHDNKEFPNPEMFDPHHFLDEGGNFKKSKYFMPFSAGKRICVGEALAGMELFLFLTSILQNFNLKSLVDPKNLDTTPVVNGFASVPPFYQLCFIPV

[10] = target: T5, Microphthalmia-associated transcription factor (Homo sapiens, UniProt O75030); assay: TRPM1 promoter luciferase signal decrease, dose response, MITF inhibitor project, cell-based, SK-MEL-5, cherry-picked, set 3 (AID 493073); type: functional
T5 sequence (O75030 whole entry): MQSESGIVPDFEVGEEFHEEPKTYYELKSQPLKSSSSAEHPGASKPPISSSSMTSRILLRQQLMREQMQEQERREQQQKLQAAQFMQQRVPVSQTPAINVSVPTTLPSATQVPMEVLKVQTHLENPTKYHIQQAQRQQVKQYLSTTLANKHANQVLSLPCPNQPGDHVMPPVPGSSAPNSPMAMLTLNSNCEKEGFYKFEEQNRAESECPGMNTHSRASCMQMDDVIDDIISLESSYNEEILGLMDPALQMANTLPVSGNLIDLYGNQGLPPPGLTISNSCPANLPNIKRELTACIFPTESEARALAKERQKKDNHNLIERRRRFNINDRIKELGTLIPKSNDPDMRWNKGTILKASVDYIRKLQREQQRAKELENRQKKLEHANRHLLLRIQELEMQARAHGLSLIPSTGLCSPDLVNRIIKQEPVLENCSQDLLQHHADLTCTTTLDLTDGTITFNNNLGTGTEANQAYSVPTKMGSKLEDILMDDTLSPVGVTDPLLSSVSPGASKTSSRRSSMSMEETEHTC

[11] = HepG2 cell cytotoxicity, dose response, cytotoxicity control for Shn3 inhibitor project, CellTiter-Glo, cherry-picked (AID 624134); type: functional, cell-based
[12] = control 3'UTR Renilla luciferase suppression, dose response, counter-screen for Shn3 inhibitor project, cell-based, Clone20-Shn3RL, cherry-picked (AID 624133); type: functional
[13] = Shn3 3'UTR reporter inhibitors, dose response, cell-based, Clone20 osteoblasts, firefly luciferase, cherry-picked (AID 624132); type: functional;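 also: firefly luciferase luminescence from reporter carrying the Shn3 3'UTR in osteoblasts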

SMILES: CC(C)Sc1nc2c3ccccc3nc-2c(O)n1C
- IC50 [1]: 0.899 µM (not active)

SMILES: Cc1cc(N2CCN(c3ccccc3)CC2)n2cc(-c3ccccc3)nc2n1
- CC50 [2]: 45.6 µM (active)
- IC50 (cells): 40 µM (active)

SMILES: CCOC(=O)N1CCC(NC(=O)c2ccc3c(c2)ncn3C2CCCC2)CC1
- IC50 [1]: 23.1 µM (not active)

SMILES: CCOC(=O)C1CN(S(=O)(=O)c2ccc(C)cc2)C1
- IC50 [1]: 4.65 µM (not active)

SMILES: O=S(=O)(c1ccccc1F)N1CCCC(c2nc(O)c3nnn(Cc4ccccc4Cl)c3n2)C1 (stereo unspecified)
- CC50 [2]: 47.8 µM (active)
- IC50 (cells): 47.6 µM (active)

SMILES: O=Cc1ccc(-c2ccc([N+](=O)[O-])cc2Cl)o1
- IC50 [1]: > 50 µM (not active)

SMILES: Cc1ccc(S(=O)(=O)NNC(=O)C(=O)NNc2ccccn2)cc1
- AC50 [3]: 0.213 µM (active)
- IC50 [4]: > 20 µM (inactive)

SMILES: COC(=O)[C@@]1(C)[C@H]2C(=O)N(Cc3ccccc3)C(=O)[C@H]2[C@H]2CN=C(SCc3ccccc3)N21
- AC50 [5]: 4.03 µM (active)
- AC50 [6]: 0.75 µM (active)
- AC50 [7]: 0.74 µM (active)
- AC50 [8]: 1.02 µM (active)

SMILES: CCOc1c2ccc(C(=O)NCc3ccccc3OC)cc2nn1CC
- EC50 [9]: > 195 µM (not active)
- AC50 (Cytochrome P450 1A2): 17.8 µM (inconclusive)
- AC50 (Cytochrome P450 2C19): 39.8 µM (inconclusive)
- AC50 (Cytochrome P450 3A4): 15.8 µM (inconclusive)
- AC50 (Cytochrome P450 2C9): inconclusive

SMILES: Cc1ncccc1C(=O)N1CCCC(C(=O)c2ccc3c4c(cccc24)CC3)C1 (stereo unspecified)
- AC50 [5]: 8.47 µM (active)
- AC50 [6]: 7.15 µM (active)
- AC50 [7]: 8.12 µM (active)
- AC50 [8]: 20.4 µM (active)

SMILES: COc1ccccc1NCC(=O)Nc1cc(S(=O)(=O)N2CCOCC2)ccc1N1CCOCC1
- IC50 (cells): 5.88 µM (active)

SMILES: Cc1cccc(N(C(=O)c2snc(C(N)=O)c2N)C(C(=O)NCC2CCCO2)c2cccs2)c1 (stereo unspecified)
- IC50 [4]: > 20 µM (inactive)

SMILES: Cn1cc(-c2nc3cnc(Oc4cccc(Cl)c4)nc3n(CCC#N)c2=O)c2ccccc21
- AC50 (Cytochrome P450 1A2): 2.51 µM (inconclusive)
- AC50 (Cytochrome P450 3A4): 7.94 µM (inconclusive)
- AC50 (Cytochrome P450 2C9): inconclusive

SMILES: Cc1c(NC(=S)/C=C2\N(C)c3ccccc3C2(C)C)c(=O)n(-c2ccccc2)n1C
- AC50 (Cytochrome P450 2C9): inconclusive

SMILES: CCc1ccc2nc(O)c(C(c3nnnn3Cc3ccc(OC)cc3)N3CCOCC3)cc2c1 (stereo unspecified)
- AC50 [5]: 43.7 µM (active)
- AC50 [6]: 4.74 µM (active)
- AC50 [7]: 6.44 µM (active)
- AC50 [8]: 7.97 µM (active)

SMILES: NC(=O)c1nsc(C(=O)N(c2ccc(Cl)cc2)C(C(=O)NCC2CCCO2)c2cccs2)c1N (stereo unspecified)
- IC50 [4]: > 20 µM (inactive)

SMILES: COc1ccc2c(c1)C(=NNC(=O)c1ccccn1)c1cc(OC)ccc1-2
- CC50 [2]: 38.6 µM (active)
- IC50 (cells): 24.6 µM (active)

SMILES: CN(C)S(=O)(=O)c1cccc(NC(=O)CSc2nc3c(cc2C#N)C(=O)CC(C)(C)C3)c1
- AC50 [10]: 9.02 µM (active)

SMILES: CCOC(=O)C1=C(CNC(C)(C)CC(C)(C)C)NC(=O)NC1c1cccc([N+](=O)[O-])c1 (stereo unspecified)
- IC50 [1]: > 50 µM (not active)

SMILES: O=C(NCc1cccnc1)C1CCC(CNS(=O)(=O)c2ccc(Cl)cc2)CC1 (stereo unspecified)
- IC50 [1]: 2.58 µM (not active)

SMILES: COc1ccc(N(C(=O)c2snc(C(N)=O)c2N)C(C(=O)NC2CCCC2)c2cccs2)cc1OC (stereo unspecified)
- IC50 [4]: > 20 µM (inactive)

SMILES: Cc1c(CCOC(=O)CC23CC4CC(CC(C4)C2)C3)sc[n+]1CC(=O)c1ccccc1
- IC50 [4]: > 20 µM (inactive)

SMILES: COc1ccccc1N1CCN(c2nc3c(C)cccn3c(=O)c2C=O)CC1
- AC50 (Cytochrome P450 1A2): 12.6 µM (inconclusive)
- AC50 (Cytochrome P450 2C19): 1.12 µM (inconclusive)
- AC50 (Cytochrome P450 2C9): inconclusive

SMILES: Cc1cccc(C2NC(=O)c3c(sc(C)c3C)N2)c1O (stereo unspecified)
- AC50 (Cytochrome P450 2C9): inconclusive

SMILES: C=C(CN(C)C)C(=O)c1ccc(C)cc1C
- AC50 [11]: 18.5 µM (active)
- AC50 [12]: 5.15 µM (active)
- AC50 [13]: 0.77 µM (active)

SMILES: COc1ccccc1-c1sc2cc3c(cc2c1-c1ccc(OCCN2CCCCC2)cc1)OCO3
- IC50 [4]: > 20 µM (inactive)

SMILES: CC(C)=CCC/C(C)=C/CNC(=O)C[C@H]1C[C@H](C(=O)N(C(C)C)C(C)C)[C@@]2(C)c3[nH]c4cc(CCC(=O)N(C)C)ccc4c3CCN2C1=O
- AC50 [12]: 11.9 µM (active)
- AC50 [13]: 2.05 µM (active)

SMILES: CCOc1ccc(CCN2C(=S)N([C@@H](CC(C)C)CN3CCCC3CN3C(=S)NC[C@@H]3Cc3ccc(O)cc3)C[C@@H]2Cc2ccc(O)cc2)cc1 (stereo partly specified)
- AC50 [11]: 53.9 µM (active)
- AC50 [12]: 6.52 µM (active)
- AC50 [13]: 11.5 µM (active)

SMILES: Cc1ccc(Nc2nc(NCC3CC3)nc3ccsc23)c(C)c1
- AC50 [11]: > 70 µM (inactive)
- AC50 [12]: 19.4 µM (active)
- AC50 [13]: 5.82 µM (active)

SMILES: C[C@@H]1CN([C@H](C)CO)C(=O)c2cccc(NS(=O)(=O)c3cccs3)c2O[C@@H]1CN(C)Cc1ccc(Cl)c(Cl)c1
- AC50 [5]: 2.53 µM (active)
- AC50 [6]: 0.444 µM (active)
- AC50 [7]: 0.952 µM (active)

SMILES: CC1CN(/N=C/c2ccc([N+](=O)[O-])o2)C(=N)O1 (stereo unspecified)
- AC50 [10]: 24.1 µM (active)
